Measured values as given in US5726316A, “Pharmaceutical compositions for prevention and treatment of central nervous system disorders” (priority 1997, dated 1998).
pKi: −log10 of the molar value.

Experiments:
[1] = target: nicotinic receptors (L-[3H]nicotine binding, rat brain membrane preparations); design: species or system rat (Sprague-Dawley); settings: calculated from IC50 (Cheng et al.)
Protocol: Rats (Sprague-Dawley) were maintained on a 12 hour light/dark cycle and were allowed free access to water and food supplied by Wayne Lab Blox, Madison, Wis. Animals used in the present studies weighted 200 to 250 g. Brain membrane preparations were obtained from brain tissue of either males or females.
Rats were killed by decapitation following anesthesia with 70% CO2. Brains were removed and placed on an ice-cold platform. […] The resulting homogenate was centrifuged at 18,000×g for 20 min. and the resulting pellet was resuspended in 20 volumes of water. After 60 min. incubation at 4° C., a new pellet was collected by centrifugation at 18,000×g for 20 min. After resuspension in 10 volumes of buffer, a new final pellet was again collected by centrifugation at 18,000×g for 20 min. Prior to each centrifugation step, the suspension was incubated at 37° C. for 5 min. to promote hydrolysis of endogenous acetylcholine. The final pellet was overlayed with buffer and stoerd at -70° C. On the day of the assay, that pellet was thawed, resuspended in buffer and centrifuged at 18,000×g for 20 min. The pellet obtained was resuspended in buffer to a final concentration of approximately 5 mg protein/ml.
The binding of L-[^3 H]nicotine was measured using a 2 hr. incubation at 4° C. […] Nonspecific binding was determined by inclusion of 10 uM nonradioactive nicotine in the incubations.

[2] = target: T1, muscle-like nicotinic receptors (human clonal line TE671/RD) (Homo sapiens, UniProt P02708+P07510+Q07001); assay type: cell-based; settings: te671/rd cells
T1 construct: Intact cells on dishes were used for functional studies; endogenous in cells; host or cells: TE671/RD (human embryonal rhabdomyosarcoma)
T1 sequence (P02708 21-457): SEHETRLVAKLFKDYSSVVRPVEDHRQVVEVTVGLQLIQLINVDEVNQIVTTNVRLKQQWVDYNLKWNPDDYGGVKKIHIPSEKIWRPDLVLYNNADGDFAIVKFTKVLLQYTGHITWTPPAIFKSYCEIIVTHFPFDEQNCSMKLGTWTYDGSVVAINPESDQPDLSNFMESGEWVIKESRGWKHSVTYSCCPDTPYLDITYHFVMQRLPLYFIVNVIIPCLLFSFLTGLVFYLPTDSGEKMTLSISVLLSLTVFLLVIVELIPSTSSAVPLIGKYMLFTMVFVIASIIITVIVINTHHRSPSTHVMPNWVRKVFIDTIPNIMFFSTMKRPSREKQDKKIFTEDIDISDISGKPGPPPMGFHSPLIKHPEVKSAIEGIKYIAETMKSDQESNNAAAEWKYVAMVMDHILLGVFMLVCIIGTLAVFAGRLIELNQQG
T1 sequence (Q07001 22-517): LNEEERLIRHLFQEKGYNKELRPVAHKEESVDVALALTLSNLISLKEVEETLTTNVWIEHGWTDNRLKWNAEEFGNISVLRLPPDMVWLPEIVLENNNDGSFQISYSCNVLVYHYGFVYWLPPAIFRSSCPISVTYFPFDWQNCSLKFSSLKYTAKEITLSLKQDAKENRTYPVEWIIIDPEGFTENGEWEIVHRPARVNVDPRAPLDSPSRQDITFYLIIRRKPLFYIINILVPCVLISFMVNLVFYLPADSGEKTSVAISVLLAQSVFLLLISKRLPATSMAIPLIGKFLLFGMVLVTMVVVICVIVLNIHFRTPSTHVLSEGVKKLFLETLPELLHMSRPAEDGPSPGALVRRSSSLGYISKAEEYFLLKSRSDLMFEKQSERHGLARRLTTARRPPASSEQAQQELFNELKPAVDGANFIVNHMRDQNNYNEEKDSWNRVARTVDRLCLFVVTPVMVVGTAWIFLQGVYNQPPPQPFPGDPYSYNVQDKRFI
T1 sequence (P07510 23-517): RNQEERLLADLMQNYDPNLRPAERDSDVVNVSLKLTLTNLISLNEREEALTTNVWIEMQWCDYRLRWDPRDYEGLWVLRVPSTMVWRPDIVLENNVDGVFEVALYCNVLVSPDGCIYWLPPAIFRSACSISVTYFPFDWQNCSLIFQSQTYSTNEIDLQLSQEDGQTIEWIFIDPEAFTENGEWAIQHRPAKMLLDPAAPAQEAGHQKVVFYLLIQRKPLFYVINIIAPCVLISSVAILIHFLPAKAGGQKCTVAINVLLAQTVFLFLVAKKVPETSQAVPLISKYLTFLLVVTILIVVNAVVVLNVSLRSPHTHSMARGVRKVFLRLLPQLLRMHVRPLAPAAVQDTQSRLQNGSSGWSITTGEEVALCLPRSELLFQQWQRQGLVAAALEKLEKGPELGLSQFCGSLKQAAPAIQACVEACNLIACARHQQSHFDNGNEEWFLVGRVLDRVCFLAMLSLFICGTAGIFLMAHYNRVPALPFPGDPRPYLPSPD
Protocol: Dose-response curves were plotted and the concentration resulting in half maximal activation of specific ion flux through nicotinic receptors determined for human muscle and rat ganglionic preparations (EC50).
(§1) Intact cells on dishes were used for functional studies.
(§2) Specific ion efflux was determined as the difference in isotope efflux between total and non-specific efflux samples. Dose-response curves were plotted and the concentration resulting in half maximal activation of specific ion flux through nicotinic receptors determined for human muscle and rat ganglionic preparations (EC50).

[3] = system: synaptosomes from the striatal area of rat brain; test: Dopamine release from striatal synaptosomes; assay type: biochemical, rat (Sprague-Dawley); settings: relative to (S)-(-)-nicotine
Protocol: Dopamine release was measured by preparing synaptosomes from the striatal area of rat brain obtained from Sprague-Dawley rats generally according to the procedures set forth by Nagy et al., J. Neurochem., Vol. 43, pp. 1114-1123 (1984). Striata from 4 rats were homogenized in 2 ml of 0.32M sucrose buffered with 5 mM HEPES (pH 7.5), using a glass-Teflon tissue grinder. The homogenate was diluted to 5 ml with additional homogenization solution and centrifuged at 1,000×g for 10 min. This procedure was repeated on the new pellet and the resulting supernatant was centrifuged at 12,000×g for 20 min. A 3 layer discontinuous Percoll gradient consisting of 16 percent, 10 percent and 7.5 percent Percoll in HEPES-buffered sucrose was made with the final pellet dispersed in the top layer. […] Using this method, 30 to 90 percent of the dopamine was taken up into the synaptosomes, as determined by scintillation counting following filtration through glass fiber filters soaked with 0.5 percent polyethyleneimine. […] After the addition of 0.2 ml of a solution containing various concentrations of ligand, the perfusate was collected into scintillation vials at 1 min. intervals and the dopamine release was quantified by scintillation counting. Peaks of radioactivity released above background were summed and the average basal release during that time was substracted from the total.

[4] = target: T2, ganglionic-type neuronal nicotinic receptors (pheochromocytoma clonal line PC12) (Rattus norvegicus, UniProt P04757+P12392); assay type: cell-based; settings: pc12 cells
T2 construct: Intact cells on dishes were used for functional studies; endogenous in cells; host or cells: PC12 (rat pheochromocytoma)
T2 sequence (P04757 26-499): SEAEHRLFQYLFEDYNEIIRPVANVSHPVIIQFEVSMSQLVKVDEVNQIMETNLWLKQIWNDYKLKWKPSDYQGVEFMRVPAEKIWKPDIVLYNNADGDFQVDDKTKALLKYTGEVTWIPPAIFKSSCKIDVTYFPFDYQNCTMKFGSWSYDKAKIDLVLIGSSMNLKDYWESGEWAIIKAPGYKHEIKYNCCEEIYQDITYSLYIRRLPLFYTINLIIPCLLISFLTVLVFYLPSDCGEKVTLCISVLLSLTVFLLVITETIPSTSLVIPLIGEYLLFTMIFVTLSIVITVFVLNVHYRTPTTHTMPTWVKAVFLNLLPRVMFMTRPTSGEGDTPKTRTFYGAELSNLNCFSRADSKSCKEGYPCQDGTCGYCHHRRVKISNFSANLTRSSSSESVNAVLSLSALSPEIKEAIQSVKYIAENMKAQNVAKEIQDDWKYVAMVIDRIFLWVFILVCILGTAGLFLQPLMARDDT
T2 sequence (P12392 21-495): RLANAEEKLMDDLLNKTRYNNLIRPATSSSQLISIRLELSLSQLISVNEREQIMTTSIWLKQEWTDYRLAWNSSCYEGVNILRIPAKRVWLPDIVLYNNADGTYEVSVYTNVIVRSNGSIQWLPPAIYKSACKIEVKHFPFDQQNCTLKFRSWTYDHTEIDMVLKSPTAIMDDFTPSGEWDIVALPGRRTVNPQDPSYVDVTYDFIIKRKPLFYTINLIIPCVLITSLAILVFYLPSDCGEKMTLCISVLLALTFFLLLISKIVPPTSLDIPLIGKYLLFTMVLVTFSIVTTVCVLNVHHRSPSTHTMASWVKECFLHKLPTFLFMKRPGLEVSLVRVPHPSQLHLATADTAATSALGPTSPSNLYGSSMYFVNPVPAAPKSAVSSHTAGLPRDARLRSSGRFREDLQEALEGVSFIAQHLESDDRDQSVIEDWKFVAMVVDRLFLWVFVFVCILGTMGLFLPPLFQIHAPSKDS
Protocol: as §1, §2

## CNCCCCc1cccnc1 [Sample No. 7, N-methyl-(3-pyridinyl)-buane-1-amine]
[1]
  pKi: 6.04
[2]
  Muscle Effect: 0 % nicotine
[3]
  Dopamine Release Emax: 72 % nicotine
[4]
  Ganglion Effect: 31 % nicotine
